Source: patent US7348427B2, “Antipathogenic benzamide compounds” (Genesoft Pharmaceuticals, Inc., priority 2001, dated 2008)

What was measured:
[1] = test system: Candida albicans (ATCC 38247); assay: Antifungal MIC assay; format: cell-based; details: B = C. albicans ATCC 38247
Summary of the method: (§1)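 MICs were determined by broth microdilution following NCCLS documents M7-A4, M11-A4 and M27-T. The antifungal assay followed the method in the Manual of Clinical Microbiology (1995).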

[2] = test system: methicillin resistant Staphylococcus aureus ATCC 33591; assay: Murine neutropenic thigh model; format: in vivo; details: neutropenic female CF1 mice, 6 hr after treatment
Description: A S. aureus ATCC 33591 culture was grown to log phase overnight and diluted in phosphate buffered saline (pH 7.2) to an optical density of about 0.1 at 600 nm, giving an approximate concentration of 10^8 cfu/mL. The suspension was diluted 1:100 in phosphate buffered saline (pH 7.2) for a final concentration of 10^6 cfu/mL.
Outbred female CF1 mice (approx. 20 gram body weight) were rendered neutropenic by treatment with cyclophosphamide (200 mg/kg body weight, intraperitoneal injection) at 2 and 4 days prior to inoculation. Groups of 5 mice were inoculated with 0.05 mL of the bacteria (approx. 10^6 cfu/mL) into the anterior thigh. Each group was treated intravenously two hours post infection with vehicle (phosphate buffered saline) or test compound. The mice were sacrificed at either 6 or 24 hrs after treatment and thighs were collected aseptically. Each thigh was weighed, placed into sterile saline, and homogenized. The tissue homogenates were diluted appropriately for plating on agar plates. Colony counts were recorded (cfu/gram) and compared to control groups.
In vivo efficacy was shown by a decrease in colony count (log cfu/gram of tissue) in the compound-treated animals when compared against the colony count in animals given only the vehicle.

[3] = test system: Staphylococcus aureus (ATCC 27660, a methicillin resistant strain (MRSA)); assay: MIC, NCCLS broth microdilution assay; format: cell-based; details: F = S. aureus ATCC 27660
Summary of the method: as §1

[4] = test system: Bacillus cereus (ATCC 11778); assay: MIC, NCCLS broth microdilution assay; format: cell-based; details: A = B. cereus ATCC 11778
Summary of the method: as §1

[5] = test system: Staphylococcus aureus (ATCC 13709, a methicillin sensitive strain (MSSA)); assay: MIC, NCCLS broth microdilution assay; format: cell-based; details: E = S. aureus ATCC 13709
Summary of the method: as §1

[6] = test system: E. faecalis ATCC 29212; assay: MIC, NCCLS broth microdilution assay; format: cell-based, Enterococcus faecalis; details: C = E. faecalis ATCC 29212
Summary of the method: (§2)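 Broth microdilution per NCCLS M7-A4 (1997) guidelines; MIC recorded as minimal inhibitory concentration.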

[7] = test system: S. pneumoniae ATCC 49619; assay: MIC, NCCLS broth microdilution assay; format: cell-based, Streptococcus pneumoniae; details: H = S. pneumoniae ATCC 49619
Summary of the method: as §2

[8] = test system: Streptococcus pneumoniae (ATCC 51422, a penicillin resistant strain (PRSP)); assay: MIC, NCCLS broth microdilution assay; format: cell-based; details: I = S. pneumoniae ATCC 51422
Summary of the method: as §1

[9] = test system: Staphylococcus epidermidis (ATCC 12228); assay: MIC, NCCLS broth microdilution assay; format: cell-based; details: G = S. epidermidis ATCC 12228
Summary of the method: as §1

[10] = test system: Enterococcus faecium (ATCC 51559, a vancomycin resistant strain (VRE)); assay: MIC, NCCLS broth microdilution assay; format: cell-based; details: D = E. faecium ATCC 51559
Summary of the method: as §1

[11] = 50 mg/kg intravenously two hours post infection

Structure (SMILES): Cn1cc(NC(=O)c2cc(NC(=O)c3cc(NC(=O)c4ccc(Cl)cc4F)c[nH]3)cn2C)cc1C(=O)NCCN1CCC(F)CC1 [Compound A-26]
- Minimum Inhibitory Concentration (MIC) [1]: ++ (++ = 4 < MIC < 12)
- Colony Count (log cfu/gram) Compound ([2]; 25 mg/kg intravenously two hours post infection): 6.37 log cfu/gram
- Colony Count (log cfu/gram) Compound [2, 11]: 5.34 log cfu/gram
- Minimum Inhibitory Concentration (MIC) [3]: +++ (+++ = MIC ≦ 4)
- Minimum Inhibitory Concentration (MIC) [4]: +++ (+++ = MIC ≦ 4)
- Minimum Inhibitory Concentration (MIC) [5]: +++ (+++ = MIC ≦ 4)
- Minimum Inhibitory Concentration (MIC) [6]: +++ (+++ = MIC ≦ 4)
- Minimum Inhibitory Concentration (MIC) [7]: +++ (+++ = MIC ≦ 4)

Structure (SMILES): CN(C)CCCNC(=O)c1cc(NC(=O)c2cc(NC(=O)c3cc(NC(=O)c4ccc(Cl)cc4F)cn3C)cn2C)cn1C [Compound B-50]
- Minimum Inhibitory Concentration (MIC) [1]: +++ (+++ = MIC ≦ 4)
- Colony Count (log cfu/gram) Compound [2, 11]: 6.58 log cfu/gram
- Minimum Inhibitory Concentration (MIC) [3]: +++ (+++ = MIC ≦ 4)
- Minimum Inhibitory Concentration (MIC) [4]: +++ (+++ = MIC ≦ 4)
- Minimum Inhibitory Concentration (MIC) [5]: +++ (+++ = MIC ≦ 4)
- Minimum Inhibitory Concentration (MIC) [6]: +++ (+++ = MIC ≦ 4)
- Minimum Inhibitory Concentration (MIC) [7]: +++ (+++ = MIC ≦ 4)

Structure (SMILES): Cn1cc(NC(=O)c2cc(NC(=O)c3cc(NC(=O)c4ccc(Cl)cc4)cn3C)cn2C)cc1C(=O)NCCN1CCOCC1 [Compound B-56]
- Minimum Inhibitory Concentration (MIC) [1]: >32 µg/mL
- Colony Count (log cfu/gram) Compound [2, 11]: 6.38 log cfu/gram
- Minimum Inhibitory Concentration (MIC) [3]: +++ (+++ = MIC ≦ 4)
- Minimum Inhibitory Concentration (MIC) [4]: +++ (+++ = MIC ≦ 4)
- Minimum Inhibitory Concentration (MIC) [5]: +++ (+++ = MIC ≦ 4)
- Minimum Inhibitory Concentration (MIC) [6]: +++ (+++ = MIC ≦ 4)
- Minimum Inhibitory Concentration (MIC) [7]: +++ (+++ = MIC ≦ 4)

Structure (SMILES): Cn1cc(NC(=O)c2cc(NC(=O)c3cc(NC(=O)c4ccc(Cl)cc4NCCN4CCCCC4)cn3C)cn2C)cc1C(=O)NCCN1CCCCC1 [Compound B-64]
- Minimum Inhibitory Concentration (MIC) [1]: +++ (+++ = MIC ≦ 4)
- Minimum Inhibitory Concentration (MIC) [3]: +++ (+++ = MIC ≦ 4)
- Minimum Inhibitory Concentration (MIC) [8]: +++ (+++ = MIC ≦ 4)
- Minimum Inhibitory Concentration (MIC) [9]: +++ (+++ = MIC ≦ 4)
- Minimum Inhibitory Concentration (MIC) [10]: +++ (+++ = MIC ≦ 4)
- Minimum Inhibitory Concentration (MIC) [4]: +++ (+++ = MIC ≦ 4)
- Minimum Inhibitory Concentration (MIC) [5]: +++ (+++ = MIC ≦ 4)
- Minimum Inhibitory Concentration (MIC) [6]: +++ (+++ = MIC ≦ 4)
- Minimum Inhibitory Concentration (MIC) [7]: +++ (+++ = MIC ≦ 4)

Structure (SMILES): Cn1cc(NC(=O)c2cc(NC(=O)c3cc(NC(=O)c4ccc(C#N)cc4)cn3C)cn2C)cc1C(=O)NCCN1CCOCC1 [Compound B-67]
- Minimum Inhibitory Concentration (MIC) [1]: >32 µg/mL
- Colony Count (log cfu/gram) Compound [2, 11]: 7.73 log cfu/gram
- Minimum Inhibitory Concentration (MIC) [4]: +++ (+++ = MIC ≦ 4)
- Minimum Inhibitory Concentration (MIC) [6]: +++ (+++ = MIC ≦ 4)
- Minimum Inhibitory Concentration (MIC) [7]: +++ (+++ = MIC ≦ 4)

Structure (SMILES): Cn1cc(NC(=O)c2cc(NC(=O)c3cc(NC(=O)c4ccc(C#N)cc4)cn3C)cn2C)cc1C(=O)NCCN1CCSCC1 [Compound B-68]
- Minimum Inhibitory Concentration (MIC) [1]: >32 µg/mL
- Minimum Inhibitory Concentration (MIC) [3]: +++ (+++ = MIC ≦ 4)
- Minimum Inhibitory Concentration (MIC) [8]: +++ (+++ = MIC ≦ 4)
- Minimum Inhibitory Concentration (MIC) [9]: +++ (+++ = MIC ≦ 4)
- Minimum Inhibitory Concentration (MIC) [10]: +++ (+++ = MIC ≦ 4)
- Minimum Inhibitory Concentration (MIC) [4]: +++ (+++ = MIC ≦ 4)
- Minimum Inhibitory Concentration (MIC) [5]: +++ (+++ = MIC ≦ 4)
- Minimum Inhibitory Concentration (MIC) [6]: +++ (+++ = MIC ≦ 4)
- Minimum Inhibitory Concentration (MIC) [7]: +++ (+++ = MIC ≦ 4)
